These results are taken from PMC12000391, “Selective molecular inhibition of the HDAC6 ZnF-UBP binding domain impairs multiple myeloma cell function” (Cell Death Discovery, 2025).

Ends that are not written are not given here.

Test [1] addresses T1, HDAC6 ZnF-UBP binding domain (ZnF-UBP^WT peptide, HDAC6^1109-1215) (Homo sapiens, UniProt Q9UBN7).
T1 construct: methods b47 print 1190-1215, apparently a misprint), expressed in E. coli BL21 Star (DE3), HisTrap purified
T1 sequence (Q9UBN7 1109-1215): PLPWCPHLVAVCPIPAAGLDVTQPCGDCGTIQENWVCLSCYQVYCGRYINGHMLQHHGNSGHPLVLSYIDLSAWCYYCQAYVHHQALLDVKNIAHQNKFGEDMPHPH
The test is described as follows: fluorescence polarization displacement of FITC-RLRGG. The text has this: fluorescence polarization displacement of FITC-RLRGG on HDAC6 ZnF-UBP binding domain (ZnF-UBP^WT peptide, HDAC6^1109-1215)
For orientation: Polarisation of emitted light reports the rotation of a fluorescent probe.

For test [2], the target named is T2, ubiquitin C-terminal pentapeptide RLRGG (Homo sapiens, also: FITC label, site not given here).
T2 chain: RLRGG
In words: fluorescence polarization.

In the case of `COc1ccc2nc(CCC(=O)O)n(C)c(=O)c2c1` [1c, Quinazolinone 1c], the IC50 (commonly the concentration that inhibits the measured activity by half) in test [1] came to 2.1 ± 0.5 µM. On the same count and under the same terms, for `Cc1ccc2c(=O)n(C)c(CCC(=O)O)nc2c1` [1g, Quinazolinone 1 g] the value was 2.1 ± 0.1 µM; for `Cn1c(CCC(=O)O)nc2cc(Cl)ccc2c1=O` [1e, Quinazolinone 1e], 1.9 ± 0.1 µM. On the same count and under the same terms, for `Cn1c(CCC(=O)O)nc2cc([N+](=O)[O-])ccc2c1=O` [1f, Quinazolinone 1 f] the value was 2.3 ± 0.2 µM. With `Cn1c(CCC(=O)O)nc2ccccc2c1=O` [1a, quinazolinone 1a], the 50% inhibitory concentration (IC50) in test [1] worked out at 2.7 ± 0.3 µM. Take `Cn1c(CCC(=O)O)nc2ccc(Cl)cc2c1=O` [1b, Quinazolinone 1b]: the IC50 in test [1] stood at 1.9 ± 0.2 µM. Consider `Cc1ccc2nc(CCC(=O)O)n(C)c(=O)c2c1` [1d, Quinazolinone 1 d], for which the IC50 in test [1] turned out to be 13.6 ± 1 µM.

B1: HDAC6 ZnF-UBP 1109-1215 (protein)
chain: T1 sequence (Q9UBN7 1109-1215)
Turning to B1, the affinity in test [2], expressed as Kd, was 0.68 µM.
